Values quoted from earlier work, collected in US8895557B2, “Pharmaceutical formulations of ecteinascidin compounds” (Pharma Mar, S.A., Sociedad Unipersonal, priority 2004, dated 2014).

How the values were obtained:
[1] = system: human tumour xenografts, including melanoma and ovarian and breast carcinoma; details: human tumour xenografts in athymic mice
[2] = system: sarcoma and breast and ovarian carcinoma; details: phase I, patients with sarcoma and breast and ovarian carcinoma
[3] = mannitol/phosphate lyophilised product reconstituted with 5 ml Water for Injection, ambient temperature

## COc1cc2c(cc1O)CCN[C@]21CS[C@@H]2c3c(OC(C)=O)c(C)c4c(c3[C@H](COC1=O)N1C2C2c3c(cc(C)c(OC)c3O)C[C@@H]([C@@H]1O)N2C)OCO4 (stereo partly shown) [ET-743, Ecteinascidin 743]
[1]
  antineoplastic activity: potent antineoplastic activity
[2]
  clinical responses: promising responses were observed
other
  aqueous solubility: limited aqueous solubility
[3]
  time for which the reconstituted solution is stable: up to 24 h
